# Assays:
# corn [1] = assay: Corn root length in field grown plants (back hoe trench) after seed treatment; assay type: in vivo; details: seed treatment 0.7 μl, severe drought, control root 30 cm, FIG. 1B
# From the text: In the roots produced in field soil in PVC pipes, adequate water was applied throughout the growing season. Conversely, in the field trial shown in FIG. 1, the plants were subject to severe drought, according to official weather service notices. In both cases, the growth of roots was much greater when produced from seeds treated with the chemical. […] When grown in the field, that is, in a setting where maximum root length was not impeded by the experiment itself, a similar or better result obtained. In FIG. 1B, roots were exposed in field grown plants with a back hoe trench and photographed. The images were adjusted so that the root volume in each is proportionally sized. In the control shown the root was 30 cm long, and with the treatment the root was 78 cm long to deepest part of the root visible.
# corn [2] = assay: Corn field trials 2015, yields after seed treatment; assay type: in vivo; details: seed treatment about 0.7 μl, 2-3 months post-planting
# Experimental: Turning to FIG. 2 in detail, pictured are long-term effects of 1-octen-3-ol (represented as the designation “Omega” on the chart) on yields of corn, yield increases in squash and control of powdery mildew on squash. Treatments in every case were seed treatments with about 0.7 μl of 1-octen-3-ol. […] FIGS. 2A and 2B show yields of corn in field trials, 2015.
# powdery mildew = assay: Powdery mildew from natural infection in field-grown squash after seed treatment; assay type: in vivo; details: seed treatment about 0.7 μl, differences significant at P=0.01, FIG. 2D
# Experimental: (§1) Turning to FIG. 2 in detail, pictured are long-term effects of 1-octen-3-ol (represented as the designation “Omega” on the chart) on yields of corn, yield increases in squash and control of powdery mildew on squash. Treatments in every case were seed treatments with about 0.7 μl of 1-octen-3-ol. […] FIGS. 2C and 2D show yield differences and disease resistance, as indicated by occurrence of powdery mildew from natural infection in field-grown squash following the same seed treatment protocol as above. The differences shown are significant at P=0.01. The yields are weights of fruit/ac. The powdery mildew disease rating is 0=no disease, 1=1 lesion/leaf, 2=2 lesions/leaf and 3=3 lesions per leaf.
# corn [3] = assay: Corn root development in PVC tubes in natural field soil after seed treatment; assay type: in vivo; details: seed treated with 0.7 μl; corn maturity, 3 months after application; PVC tubes about 4 M long; FIG. 1A
# Experimental: In the roots produced in field soil in PVC pipes, adequate water was applied throughout the growing season. Conversely, in the field trial shown in FIG. 1, the plants were subject to severe drought, according to official weather service notices. In both cases, the growth of roots was much greater when produced from seeds treated with the chemical. […] Turning to FIG. 1 in detail, pictured are the development of corn roots from seeds not treated (left) or treated with 0.7 μl of 1-octen-3-ol (right) at the time of corn maturity (that is, 3 months after application of octenol). In FIG. 1A, plants were grown in PVC tubes about 4 M long in natural field soil, and the treated seeds produced roots that exceeded the control by about 50%. Length of roots are indicated in meters (M) by the scale at right.
# squash = assay: Field-grown squash yield after seed treatment; assay type: in vivo; details: seed treatment about 0.7 μl; differences significant at P=0.01; FIG. 2C
# Experimental: as §1
# [4] = moderate toxicity; cited from earlier work
# corn [5] = assay: Field trials of seed treatment, early-season flooding stress; assay type: in vivo; details: seed treatment 0.7 μl/seed
# corn [6] = assay: Corn seedling size after seed or urea fertilizer treatment with cyclodextrin/6PP; assay type: in vivo; details: cyclodextrin formulation; 0.2, 2 and 20 μl/seed or μl/g of urea fertilizer; plants about 15 days old; FIG. 4
# Experimental: FIG. 4 illustrates corn seedling size following seed treatments at 0 (CO), 0.2, 2 and 20 μl/seed or of fertilizer with cyclodextrin/6PP at 0 (CO), 0.2, 2 and 20 μl/g of urea fertilizer. Plants were about 15 days old and bars with dissimilar letters denote statistical differences at P=0.01. The formulation systems designated here can be used with many other triggering compounds, signal molecules, or substances. In FIG. 4 is shown data on 6-pentyl pyrone (6PP) used with the same cyclodextrin formulation described above for use with 1-octen-3-ol. 6PP is effective in this use.
smiles,measurement,setting,value
C=CC(O)CCCCC (stereo not drawn) [1-octen-3-ol],root length to deepest part of the root visible,corn [1],78 cm
same,biomass yield of corn versus untreated,corn [2]; FIG. 2A,significantly higher yields
same,grain yield of corn versus untreated,corn [2]; FIG. 2B,significantly higher yields
same,disease resistance (powdery mildew disease rating),powdery mildew,systemically enhanced
same,roots exceeding the control,corn [3],about 50%
same,squash yield (weights of fruit/ac),squash,systemically enhanced
same,LD 50,[4],340 mg/kg
same,resistance to flooding stress,corn [5],resistance to early-season flooding stress
"CCCCCc1cccc(=O)o1 [6PP, 6-pentyl pyrone]",corn seedling size,corn [6],effective

# Reference: patent publication US11930812B2, “Coating materials for seeds and for particulate materials, including fertilizers” (ADVANCED BIOLOGICAL MARKETING, INC., priority 2017, dated 2024)
